Measured values taken from paper PMC7504751, “Potential of 2-Chloro-N-(4-fluoro-3-nitrophenyl)acetamide Against Klebsiella pneumoniae and In Vitro Toxicity Analysis” (Molecules, 2020).
Values after ≈ are worked out from the molar mass of the structure shown. Where two headings read alike, the source gives them in different places.

What was measured:
K. pneumoniae strains [1] = assay: Minimum inhibitory concentration (MIC), broth microdilution; format: cell-based, Klebsiella pneumoniae
Experimental: (§1) The clinical isolates strains of K. pneumoniae were used in this study belong to the MICOTECA of the Antibacterial and Antifungal Activity Research Laboratory of the Federal University of Paraíba, Brazil, which are: KP-25, KP-26, KP-56, KP-83, KP-87, KP-138, KP-143, KP-166, KP-173, KP-176, KP-260, and KP-326. The American Type Culture Collection strain ATCC-700603 was used as controls. For use in the assays, bacterial suspensions were prepared in 0.9% saline solution, from fresh cultures, and adjusted to the McFarland standard 0.5 scale.
To assess the antibacterial activity of substances A1 and A2, the minimum inhibitory concentration against K. pneumoniae strains was determined. The substances were solubilized in dimethyl sulfoxide (DMSO) at 5% and Tween-80 at 2%, to obtain emulsions in the concentrations necessary for use in the tests. The MIC determination was performed using the broth microdilution technique in a 96-well plate to obtain different concentrations of A1 and A2 [35]. In parallel, controls for sterility, cell viability, and interference of the vehicles used in the preparation of substance emulsions (DMSO and Tween-80) were also performed. MIC is defined as the lowest concentration capable of causing complete inhibition of bacterial growth after 24 h at 35 ± 2 °C.

K. pneumoniae strains [2] = assay: Minimum bactericidal concentration (MBC); format: cell-based, Klebsiella pneumoniae; details: for Effect: from MBC/MIC ratio
Experimental: as §1
After MIC reading, the A2 minimum bactericidal concentration was determined by removing aliquots from the microdilution plates in the wells corresponding to concentrations equivalent to MIC, 2× MIC, 4× MIC, and 8× MIC and inoculating in new plates containing only culture broth. All controls were performed in parallel. MBC is defined as the lowest concentration capable of causing complete inhibition of bacterial growth after 24 h at 35 ± 2 °C [21, 44].

Hemolytic activity = format: cell-based; details: human, 0.5% red blood cell suspension
Experimental: The tests were performed according to the recommendations established by the Code of Ethics of the World Medical Association, after approval by the ethics committee of the Centro Universitário de Patos (number: 3621284). Blood samples (types A, B, and O) and smears of oral mucosa were donated by young, healthy adults.
The red blood cell (RBC) samples from blood donors were diluted in 0.9% NaCl at a 1:30 ratio and centrifuged at 2500 rpm for five minutes to obtain the 0.5% suspension free of white blood cells and platelets. Then, the A2 substance was added to the red blood cell suspensions, at 50, 100, 500, and 1000 µg/mL concentrations. As controls, a suspension of red cells without treatment (0% hemolysis) were used as a negative control and a suspension of red cells treated with 1% Triton X-100 (100% hemolysis) as a positive control. The assay was incubated for one hour at 22 ± 2 °C. After that time, the samples were centrifuged at 700× g for 5 min and hemolysis was quantified by spectrophotometry at a wavelength of 540 nm.

SMILES: O=C(CCl)Nc1ccc(F)c([N+](=O)[O-])c1 [A2, 2-chloro-N-(4-fluoro-3-nitrophenyl)acetamide]
- MIC (K. pneumoniae strains [1]; Klebsiella pneumoniae, ATCC700603, strain ATCC-700603, 24 h at 35 ± 2 °C, read-out: MIC): 512 µg/mL (≈ 2200 µM)
- MIC (K. pneumoniae strains [1]; Klebsiella pneumoniae, 100% of the K. pneumoniae strains used in this study, read-out: MIC): 512 µg/mL (≈ 2200 µM)
- MIC (K. pneumoniae strains [1]; Klebsiella pneumoniae, strain KP-138, 24 h at 35 ± 2 °C, read-out: MIC): 512 µg/mL (≈ 2200 µM)
- MIC (K. pneumoniae strains [1]; strain KP-25, 24 h at 35 ± 2 °C): 512 µg/mL (≈ 2200 µM)
- MIC (K. pneumoniae strains [1]; strain KP-26, 24 h at 35 ± 2 °C): 512 µg/mL (≈ 2200 µM)
- MIC (K. pneumoniae strains [1]; strain KP-56, 24 h at 35 ± 2 °C): 512 µg/mL (≈ 2200 µM)
- MIC (K. pneumoniae strains [1]; strain KP-83, 24 h at 35 ± 2 °C): 512 µg/mL (≈ 2200 µM)
- MIC (K. pneumoniae strains [1]; strain KP-87, 24 h at 35 ± 2 °C): 512 µg/mL (≈ 2200 µM)
- MIC (K. pneumoniae strains [1]; strain KP-143, 24 h at 35 ± 2 °C): 512 µg/mL (≈ 2200 µM)
- MIC (K. pneumoniae strains [1]; strain KP-166, 24 h at 35 ± 2 °C): 512 µg/mL (≈ 2200 µM)
- MIC (K. pneumoniae strains [1]; strain KP-173, 24 h at 35 ± 2 °C): 512 µg/mL (≈ 2200 µM)
- MIC (K. pneumoniae strains [1]; strain KP-176, 24 h at 35 ± 2 °C): 512 µg/mL (≈ 2200 µM)
- MIC (K. pneumoniae strains [1]; strain KP-260, 24 h at 35 ± 2 °C): 512 µg/mL (≈ 2200 µM)
- MIC (K. pneumoniae strains [1]; strain KP-326, 24 h at 35 ± 2 °C): 512 µg/mL (≈ 2200 µM)
- MBC (K. pneumoniae strains [2]; Klebsiella pneumoniae, ATCC700603, strain ATCC-700603, read-out: MBC): 512 µg/mL (≈ 2200 µM)
- MBC (K. pneumoniae strains [2]; Klebsiella pneumoniae, all K. pneumoniae strains used in this study, read-out: MBC): 512 µg/mL (≈ 2200 µM)
- mode of action (bactericidal / bacteriostatic) (K. pneumoniae strains [2]; all K. pneumoniae strains, from the MIC): bactericidal
- Effect (K. pneumoniae strains [2]; strain ATCC-700603): Bactericide (bactericidal activity when the ratio between MBC and MIC is ≤4)
- MBC (K. pneumoniae strains [2]; strain KP-25): 512 µg/mL (≈ 2200 µM)
- Effect (K. pneumoniae strains [2]; strain KP-25): Bactericide (bactericidal activity when the ratio between MBC and MIC is ≤4)
- MBC (K. pneumoniae strains [2]; strain KP-26): 512 µg/mL (≈ 2200 µM)
- Effect (K. pneumoniae strains [2]; strain KP-26): Bactericide (bactericidal activity when the ratio between MBC and MIC is ≤4)
- MBC (K. pneumoniae strains [2]; strain KP-56): 512 µg/mL (≈ 2200 µM)
- Effect (K. pneumoniae strains [2]; strain KP-56): Bactericide (bactericidal activity when the ratio between MBC and MIC is ≤4)
- MBC (K. pneumoniae strains [2]; strain KP-83): 512 µg/mL (≈ 2200 µM)
- Effect (K. pneumoniae strains [2]; strain KP-83): Bactericide (bactericidal activity when the ratio between MBC and MIC is ≤4)
- MBC (K. pneumoniae strains [2]; strain KP-87): 512 µg/mL (≈ 2200 µM)
- Effect (K. pneumoniae strains [2]; strain KP-87): Bactericide (bactericidal activity when the ratio between MBC and MIC is ≤4)
- MBC (K. pneumoniae strains [2]; strain KP-138): 512 µg/mL (≈ 2200 µM)
- Effect (K. pneumoniae strains [2]; strain KP-138): Bactericide (bactericidal activity when the ratio between MBC and MIC is ≤4)
- MBC (K. pneumoniae strains [2]; strain KP-143): 512 µg/mL (≈ 2200 µM)
- Effect (K. pneumoniae strains [2]; strain KP-143): Bactericide (bactericidal activity when the ratio between MBC and MIC is ≤4)
- MBC (K. pneumoniae strains [2]; strain KP-166): 512 µg/mL (≈ 2200 µM)
- Effect (K. pneumoniae strains [2]; strain KP-166): Bactericide (bactericidal activity when the ratio between MBC and MIC is ≤4)
- MBC (K. pneumoniae strains [2]; strain KP-173): 512 µg/mL (≈ 2200 µM)
- Effect (K. pneumoniae strains [2]; strain KP-173): Bactericide (bactericidal activity when the ratio between MBC and MIC is ≤4)
- MBC (K. pneumoniae strains [2]; strain KP-176): 512 µg/mL (≈ 2200 µM)
- Effect (K. pneumoniae strains [2]; strain KP-176): Bactericide (bactericidal activity when the ratio between MBC and MIC is ≤4)
- MBC (K. pneumoniae strains [2]; strain KP-260): 512 µg/mL (≈ 2200 µM)
- Effect (K. pneumoniae strains [2]; strain KP-260): Bactericide (bactericidal activity when the ratio between MBC and MIC is ≤4)
- MBC (K. pneumoniae strains [2]; strain KP-326): 512 µg/mL (≈ 2200 µM)
- Effect (K. pneumoniae strains [2]; strain KP-326): Bactericide (bactericidal activity when the ratio between MBC and MIC is ≤4)
- hemolysis at 1 h (Hemolytic activity; blood types A, B and O, 50–500 µg/mL, all tested blood types, 1 h at 22 ± 2 °C): 4 to 20%
- hemolysis at 1 h, 1000 µg/mL (Hemolytic activity; blood type O, read-out: hemolysis (average erythrocyte lysis)): 8%
- hemolysis at 1 h, 1000 µg/mL (Hemolytic activity; blood types A and B, read-out: hemolysis): 37 to 47%
